One assay concerns the target T1, rhLCMT-1 (Homo sapiens, UniProt Q9UIC8).
T1 construct: purchased SignalChem (Richmond, British Columbia, Canada)
As to the kind of experiment: rhLCMT-1 activity assay (dot immunoblot). In kind it is biochemical. The following applies: each inhibitor 50 μM; 20 μM SAM; 37° C. for 30 minutes. On the procedure:
Recombinant human LCMT-1 (rhLCMT-1) and rhPP2Ac were obtained from SignalChem (Richmond, British Columbia, Canada). Methyltransferase assays were performed with 100 ng rhLCMT-1 and 91.62 ng rhPP2Ac (2:1 molar ratio) (28) in reaction buffer containing 20 mM Tris (pH 8.0), 50 mM NaCl, 1 mM EDTA. rhLCMT-1 was incubated with Compound 1 (Chemspace, San Jose, California), Compound 2 (Akos Consulting and Solutions, Amtsgericht, Freiburg, Germany) or sinefungin, a SAM analogue, (Active Motif, Carlsbad, California), each at 50 μM final concentration, for 10 minutes at room temperature. rhPP2Ac was added to the reactions with 20 μM (final concentration) SAM (New England Biolabs, Ipswich, Massachusetts, FIG. 9). […] Reactions were incubated at 37° C. for 30 minutes (FIG. 10). Because the inhibitors gave false positive results with the secondary reactions used in colorimetric and bioluminescent methyltansferase assays, LCMT-1 activity was assessed using dot immunoblots. Reactions were applied to nitrocellulose membranes (Cytiva, Marlborough, Massachusetts). […] Membranes were treated with infrared (IR)-dye anti-mouse antibody (Li-Cor, Lincoln, Nebraska, catalog #926-32210, 1:20,000 dilution) and densities were measured with Li-Cor Image Studio (version 5.2) software. rhLCMT-1 inhibition assays were performed three times, each time with five replicates for each condition.

Assay [1] concerns Rosi cells. Put plainly: Colony forming assay. Type of assay: cell-based, human. The following applies: 50-3.25 μM, one week. The procedure:
(§1) MCF7, MDA-MB-231 and Rosi cells were seeded in 96-well tissue culture plates (Celltreat, Pepperell, Massachusetts) at a density of 90 cells per well (Mayr et al. Int J Mol Sci. 2018; 19(3)). After 24 hours, the media were changed to media containing LB-100 or Compound 2 at various concentrations (50-3.25 μM). Control cells were given fresh media. After one week the media were aspirated and the wells were washed with PBS. Cells were stained with crystal violet solution (0.25 g crystal violet in 20% methanol) for 10 minutes. The wells were washed 6 times with PBS to remove excess crystal violet. Colonies were counted with an ECHO Revolve hybrid microscope at 1.5× magnification. There were ten replicates for each condition.

Assay [2] relates to MDA-MB-231 cells. Put plainly: Colony forming assay. Type of assay: cell-based, human. As to conditions: 50-3.25 μM, one week. On the procedure:
as §1

For assay [3], the system named is MCF7 cells. Put plainly: Colony forming assay. As to conditions: 50-3.25 μM, one week. In kind it is cell-based, human. The procedure: as §1
The test system of assay [4] is Rosi cells. Put plainly: Annexin V assay. As to conditions: 5-20 μM, 48 hours. In kind it is cell-based, human. The procedure: (§2) MCF7, MDA-MB-231 and Rosi cells were treated with LB-100 and Compound 2 at 5-20 μM concentrations. After 48 hours, cells were lifted with Accutase and washed twice with PBS (pH 7.4) with 10% FBS. Cells were resuspended in annexin V binding buffer (10 mM HEPES (pH 7.4), 140 mM NaCl and 2.5 mM CaCl2)) and labeled with FITC-anti-Annexin V and 7-AAD (Biolegend, FITC Annexin V Apoptosis Detection Kit with 7-AAD, catalog #640922). Cell surface annexin V expression was assessed with flow cytometry.

In assay [5] the test system is MDA-MB-231 cells. Put plainly: Annexin V assay. In kind it is cell-based, human. The following applies: 5-20 μM, 48 hours. On the procedure:
as §2

The subject of assay [6] is MCF7 cells. As to the kind of experiment: Annexin V assay. In kind it is cell-based, human. The following applies: 5-20 μM, 48 hours. On the procedure:
as §2

The test system of assay [7] is Rosi cells. Put plainly: Cytotoxicity assay (CellTiter 96 AQeous). In kind it is cell-based. The following applies: Homo sapiens, 48 hours. The procedure: (§3) MCF7, MDA-MB-231, 501-MEL, Rosi, A549, SCC-15, SCC-25, UM-SCC-12, UM-SCC-14a, UM-SCC-49 and UM-SCC69 cells were seeded in 96-well tissue culture plates (Corning, New York) at a density of 2.5×10^3 cells/well. After 24 hours, the media were changed to media with LCMT-li (ChemSpace, Monmouth Junction, New Jersey) at various concentrations (0.78-200 μM). Control cells were given fresh media. After 48 hours cell viability was assessed using CellTiter 96® AQeous Non-Radioactive Cell Proliferation Assays (Promega Corporation, Madison Wisconsin). Plates were read after 4 hours with a GloMax® Discover plate reader (Promega Corporation, Madison Wisconsin). The cytotoxicity assays were performed at least twice, each time with eight replicates per condition.
(§4) Statistical analyses were performed with GraphPad Prism software (version 10.4.1). Effective concentrations that inhibited 50% of cells (EC50, log agonist versus response) were estimated with nonlinear fit curves. Absorbance values for cytotoxity assays and relative densities for Western blot assays were compared using Kruskal-Wallis analyses of variance with Dunn's correction for multiple comparisons. For flow cytometric analyses, two-way analyses of variance with Tukey's correction for multiple comparisons were used.

In assay [8] the test system is MDA-MB-231 cells. Put plainly: Cytotoxicity assay (CellTiter 96 AQeous). The following applies: Homo sapiens, 48 hours. Type of assay: cell-based. The procedure: as §3, §4
In a further assay the test system is UM-SCC-12 cells. Put plainly: Cytotoxicity assay (CellTiter 96 AQeous). Type of assay: cell-based. The following applies: Homo sapiens, 48 hours. On the procedure: as §3, §4
The next assay deals with UM-SCC-14a cells. Put plainly: Cytotoxicity assay (CellTiter 96 AQeous). Type of assay: cell-based. The following applies: Homo sapiens, UMSCC14A, 48 hours. On the procedure:
as §3, §4

The next assay concerns UM-SCC-69 cells. Put plainly: Cytotoxicity assay (CellTiter 96 AQeous). Type of assay: cell-based. The following applies: Homo sapiens, 48 hours. On the procedure: as §3, §4
In assay [9] the test system is MCF7 cells. Put plainly: Cytotoxicity assay (CellTiter 96 AQeous). In kind it is cell-based. As to conditions: Homo sapiens, 48 hours. The procedure:
as §3, §4

For a further assay, the system named is 501-MEL cells. Put plainly: Cytotoxicity assay (CellTiter 96 AQeous). In kind it is cell-based. As to conditions: Homo sapiens, 48 hours. The procedure: as §3, §4
The test system of a further assay is SCC-15 cells. Put plainly: Cytotoxicity assay (CellTiter 96 AQeous). In kind it is cell-based. As to conditions: Homo sapiens, 48 hours. The procedure:
as §3, §4

A further assay deals with UM-SCC-49 cells. Put plainly: Cytotoxicity assay (CellTiter 96 AQeous). In kind it is cell-based. As to conditions: Homo sapiens, 48 hours. The procedure:
as §3, §4

The test system of a further assay is A549 cells. As to the kind of experiment: Cytotoxicity assay (CellTiter 96 AQeous). As to conditions: Homo sapiens, 48 hours. In kind it is cell-based. On the procedure:
as §3, §4

pEC50: −log10 of the molar value.

T1 sequence (Q9UIC8 whole entry): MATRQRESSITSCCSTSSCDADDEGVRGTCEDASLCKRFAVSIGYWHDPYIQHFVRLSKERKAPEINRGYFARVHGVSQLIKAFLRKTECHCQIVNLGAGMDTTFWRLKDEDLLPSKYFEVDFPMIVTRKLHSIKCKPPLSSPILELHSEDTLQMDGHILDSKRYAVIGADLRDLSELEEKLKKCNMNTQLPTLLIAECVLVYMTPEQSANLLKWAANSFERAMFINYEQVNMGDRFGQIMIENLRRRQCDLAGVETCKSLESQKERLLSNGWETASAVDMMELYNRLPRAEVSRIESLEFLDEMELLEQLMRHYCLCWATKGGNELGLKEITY

Broadly, the pEC50 is the negative decadic logarithm of the EC50, by convention in mol/L. Higher therefore signals a low EC50. Turning to `COC(=O)c1c(NC(=O)c2ccccc2C)sc(C(=O)Nc2cccc(C)c2)c1C` [Compound 2, methyl 4-methyl-2-[(2-methylbenzoyl)amino]-5-[[(3-methylphenyl)amino]carbonyl]-3-thiophenecarboxylate], at rhLCMT-1, the “methylation of rhPP2Ac by rhLCMT-1” value was “inhibited methylation of rhPP2Ac to the same degree as the SAM analogue sinefungin”. The clonogenic colony formation entry is listed as “inhibited colony formation” with Rosi cells [1], “inhibited colony formation” with MDA-MB-231 cells [2] and “inhibited to a lesser extent” in the assay on MCF7 cells [3]. Besides, the “apoptosis (cell surface annexin V expression)” value with Rosi cells [4] is “did not induce apoptosis”; in the assay with MDA-MB-231 cells [5], “increased cell surface annexin V expression”; in the assay with MCF7 cells [6], “decreased cell surface annexin V”. For the same molecule, the negative logarithm of the EC50 (pEC50) in the assay on Rosi cells [7] is 5.50; in the assay on MDA-MB-231 cells [8], 5.41; in the assay on UM-SCC-12 cells it was 3.68; with UM-SCC-14a cells it was 4.58; in the assay with UM-SCC-69 cells, 5.60; in the assay on MCF7 cells [9], 5.65. The pEC50 was 4.22 in the assay with 501-MEL cells, 5.37 with SCC-15 cells, 5.31 in the assay on UM-SCC-49 cells and 4.38 in the assay with A549 cells.

Source of the values: patent publication US20250320190A1, “Novel Inhibitors of Leucine Carboxyl Methyltransferase-1 (LCMT-1) and Methods of Use Thereof” (Temple University-Of The Commonwealth System of Higher …, priority 2024, published 2025).
